Laboratory results as given in patent publication US20010027213A1, “Use of pyrethroid compounds to promote hair growth” (priority 1998, published 2001).
Marks after values point to notes of the source that are not given here.

These molecules were tested on C3H strain mice (assay: Hair growth on clipped back skin, repeat with minoxidil control, Example 5). Settings: 0.01%; Week 1.
Format: in vivo
Design: Level of hair growth (unaided visual inspection): scale not given here
Description: (§1) The ability of topical administration of pyrethroid compounds to promote hair growth was assessed in female C3H strain mice (10 weeks old; n=5/group). Hair on the back skin of the mice was clipped carefully with an electric clipper. 5 μL/cm^2 of the five compositions tested in the examples above were applied to the mice daily. The level of hair growth at the applied skin areas were evaluated by unaided visual inspection at the indicated time. Cyclosporin A was used as a control.
The experiment described in Example 4 was repeated with a commercially available hair growth-promoting compound (5% minoxidil) as a control.

| SMILES | Level of hair growth (unaided visual inspection) |
| --- | --- |
| CC(C)C(C(=O)OC(C#N)c1cccc(Oc2ccccc2)c1)c1ccc(Cl)cc1 (centres unmarked) [Fenvalerate, fenvalerate] | 0 |

Same assay, conditions: 0.01%; Week 2

| SMILES | Level of hair growth (unaided visual inspection) |
| --- | --- |
| CC(C)C(C(=O)OC(C#N)c1cccc(Oc2ccccc2)c1)c1ccc(Cl)cc1 (centres unmarked) [Fenvalerate, fenvalerate] | 0 |

Same assay, conditions: 0.01%; Week 3

| SMILES | Level of hair growth (unaided visual inspection) |
| --- | --- |
| CC(C)C(C(=O)OC(C#N)c1cccc(Oc2ccccc2)c1)c1ccc(Cl)cc1 (centres unmarked) [Fenvalerate, fenvalerate] | 0 |

Same assay, conditions: 0.01%; Week 4

| SMILES | Level of hair growth (unaided visual inspection) |
| --- | --- |
| CC(C)C(C(=O)OC(C#N)c1cccc(Oc2ccccc2)c1)c1ccc(Cl)cc1 (centres unmarked) [Fenvalerate, fenvalerate] | 0 |

Same assay, conditions: 0.01%; Week 5

| SMILES | Level of hair growth (unaided visual inspection) |
| --- | --- |
| CC(C)C(C(=O)OC(C#N)c1cccc(Oc2ccccc2)c1)c1ccc(Cl)cc1 (centres unmarked) [Fenvalerate, fenvalerate] | 0 |

Same assay, conditions: 0.01%; Week 6

| SMILES | Level of hair growth (unaided visual inspection) |
| --- | --- |
| CC(C)C(C(=O)OC(C#N)c1cccc(Oc2ccccc2)c1)c1ccc(Cl)cc1 (centres unmarked) [Fenvalerate, fenvalerate] | 0 |

Same assay, conditions: 0.1%; Week 1

| SMILES | Level of hair growth (unaided visual inspection) |
| --- | --- |
| CC(C)C(C(=O)OC(C#N)c1cccc(Oc2ccccc2)c1)c1ccc(Cl)cc1 (centres unmarked) [Fenvalerate, fenvalerate] | 0 |

Same assay, conditions: 0.1%; Week 2

| SMILES | Level of hair growth (unaided visual inspection) |
| --- | --- |
| CC(C)C(C(=O)OC(C#N)c1cccc(Oc2ccccc2)c1)c1ccc(Cl)cc1 (centres unmarked) [Fenvalerate, fenvalerate] | 0 |

Same assay, conditions: 0.1%; Week 3

| SMILES | Level of hair growth (unaided visual inspection) |
| --- | --- |
| CC(C)C(C(=O)OC(C#N)c1cccc(Oc2ccccc2)c1)c1ccc(Cl)cc1 (centres unmarked) [Fenvalerate, fenvalerate] | 5 |

Same assay, conditions: 0.1%; Week 4

| SMILES | Level of hair growth (unaided visual inspection) |
| --- | --- |
| CC(C)C(C(=O)OC(C#N)c1cccc(Oc2ccccc2)c1)c1ccc(Cl)cc1 (centres unmarked) [Fenvalerate, fenvalerate] | 5 |

Same assay, conditions: 0.1%; Week 5

| SMILES | Level of hair growth (unaided visual inspection) |
| --- | --- |
| CC(C)C(C(=O)OC(C#N)c1cccc(Oc2ccccc2)c1)c1ccc(Cl)cc1 (centres unmarked) [Fenvalerate, fenvalerate] | 5 |

Same assay, conditions: 0.1%; Week 6

| SMILES | Level of hair growth (unaided visual inspection) |
| --- | --- |
| CC(C)C(C(=O)OC(C#N)c1cccc(Oc2ccccc2)c1)c1ccc(Cl)cc1 (centres unmarked) [Fenvalerate, fenvalerate] | 5 |

Same assay, conditions: 1%; Week 1

| SMILES | Level of hair growth (unaided visual inspection) |
| --- | --- |
| CC(C)C(C(=O)OC(C#N)c1cccc(Oc2ccccc2)c1)c1ccc(Cl)cc1 (centres unmarked) [Fenvalerate, fenvalerate] | 0 |

Same assay, conditions: 1%; Week 2

| SMILES | Level of hair growth (unaided visual inspection) |
| --- | --- |
| CC(C)C(C(=O)OC(C#N)c1cccc(Oc2ccccc2)c1)c1ccc(Cl)cc1 (centres unmarked) [Fenvalerate, fenvalerate] | 0* |

Same assay, conditions: 1%; Week 3

| SMILES | Level of hair growth (unaided visual inspection) |
| --- | --- |
| CC(C)C(C(=O)OC(C#N)c1cccc(Oc2ccccc2)c1)c1ccc(Cl)cc1 (centres unmarked) [Fenvalerate, fenvalerate] | 3* |

Same assay, conditions: 1%; Week 4

| SMILES | Level of hair growth (unaided visual inspection) |
| --- | --- |
| CC(C)C(C(=O)OC(C#N)c1cccc(Oc2ccccc2)c1)c1ccc(Cl)cc1 (centres unmarked) [Fenvalerate, fenvalerate] | 5 |

Same assay, conditions: 1%; Week 5

| SMILES | Level of hair growth (unaided visual inspection) |
| --- | --- |
| CC(C)C(C(=O)OC(C#N)c1cccc(Oc2ccccc2)c1)c1ccc(Cl)cc1 (centres unmarked) [Fenvalerate, fenvalerate] | 5 |

Same assay, conditions: 1%; Week 6

| SMILES | Level of hair growth (unaided visual inspection) |
| --- | --- |
| CC(C)C(C(=O)OC(C#N)c1cccc(Oc2ccccc2)c1)c1ccc(Cl)cc1 (centres unmarked) [Fenvalerate, fenvalerate] | 5 |

Same assay, conditions: concentrations of 0.1% and 1% in ethanol solutions

| SMILES | Promoting hair growth |
| --- | --- |
| CC(C)C(C(=O)OC(C#N)c1cccc(Oc2ccccc2)c1)c1ccc(Cl)cc1 (centres unmarked) [Fenvalerate, fenvalerate] | effective in promoting hair growth |

These molecules were tested on C3H strain mice (assay: Hair growth on clipped back skin, topical daily application, Example 4). Settings: 1% topical daily.
Format: in vivo
Design: Level of hair growth (unaided visual inspection): scale not given here
Description: as §1, with “time.” for “time. Cyclosporin A was used as a control.”

| SMILES | Promoting hair growth |
| --- | --- |
| CC(C)C(C(=O)OC(C#N)c1cccc(Oc2ccccc2)c1)c1ccc(Cl)cc1 (centres unmarked) [Fenvalerate, fenvalerate] | effective in promoting hair growth |

Same assay, conditions: Day 7; 1%, 5 μL/cm^2 daily; n=5/group

| SMILES | Level of hair growth (unaided visual inspection) |
| --- | --- |
| CC(C)C(C(=O)OC(C#N)c1cccc(Oc2ccccc2)c1)c1ccc(Cl)cc1 (centres unmarked) [Fenvalerate, fenvalerate] | 0 |

Same assay, conditions: Day 14; 1%, 5 μL/cm^2 daily; n=5/group

| SMILES | Level of hair growth (unaided visual inspection) |
| --- | --- |
| CC(C)C(C(=O)OC(C#N)c1cccc(Oc2ccccc2)c1)c1ccc(Cl)cc1 (centres unmarked) [Fenvalerate, fenvalerate] | 0 |

Same assay, conditions: Day 19; 1%, 5 μL/cm^2 daily; n=5/group

| SMILES | Level of hair growth (unaided visual inspection) |
| --- | --- |
| CC(C)C(C(=O)OC(C#N)c1cccc(Oc2ccccc2)c1)c1ccc(Cl)cc1 (centres unmarked) [Fenvalerate, fenvalerate] | 1 |

Same assay, conditions: Day 29; 1%, 5 μL/cm^2 daily; n=5/group

| SMILES | Level of hair growth (unaided visual inspection) |
| --- | --- |
| CC(C)C(C(=O)OC(C#N)c1cccc(Oc2ccccc2)c1)c1ccc(Cl)cc1 (centres unmarked) [Fenvalerate, fenvalerate] | 4 |

Same assay, conditions: Day 36; 1%, 5 μL/cm^2 daily; n=5/group

| SMILES | Level of hair growth (unaided visual inspection) |
| --- | --- |
| CC(C)C(C(=O)OC(C#N)c1cccc(Oc2ccccc2)c1)c1ccc(Cl)cc1 (centres unmarked) [Fenvalerate, fenvalerate] | 4 |

These molecules were tested on mice (C3H strain) (assay: Ear thickness (primary skin irritancy) after topical application, Example 1). Settings: 1% in ethanol; C3H mice.
Format: in vivo
Description: The following example was performed to determine if pyrethroid compounds cause skin irritation (as indicated by ear thickness in mice). Skin irritants may contribute to promoting hair growth.
Prior to the experiment, ear thickness of mice (C3H strain, female, 16 weeks of age, n=3/group) was measured with a thickness gage (Mitsutoyo Corp.). After measuring ear thickness of both ears, 10 μL of ethanol was applied on left ear and 10 μL of a pyrethroid solution (1% pyrethroid compound in ethanol) was applied to the right ear. Ear thickness was measured for three consecutive days after administration.

| SMILES | Ear thickness compared to ethanol |
| --- | --- |
| CC(C)C(C(=O)OC(C#N)c1cccc(Oc2ccccc2)c1)c1ccc(Cl)cc1 (centres unmarked) [Fenvalerate, fenvalerate] | did not increase ear thickness |

Same assay, conditions: day 0 (before application); C3H female mice, n=3

| SMILES | Right ear thickness [×0.01 mm] |
| --- | --- |
| CC(C)C(C(=O)OC(C#N)c1cccc(Oc2ccccc2)c1)c1ccc(Cl)cc1 (centres unmarked) [Fenvalerate, fenvalerate] | 27.3 |

Same assay, conditions: day 1; 10 μL of 1% in ethanol on right ear; C3H mice

| SMILES | Right ear thickness [×0.01 mm] |
| --- | --- |
| CC(C)C(C(=O)OC(C#N)c1cccc(Oc2ccccc2)c1)c1ccc(Cl)cc1 (centres unmarked) [Fenvalerate, fenvalerate] | 28.0 |

Same assay, conditions: day 2; 10 μL of 1% in ethanol on right ear; C3H mice

| SMILES | Right ear thickness [×0.01 mm] |
| --- | --- |
| CC(C)C(C(=O)OC(C#N)c1cccc(Oc2ccccc2)c1)c1ccc(Cl)cc1 (centres unmarked) [Fenvalerate, fenvalerate] | 28.0 |

Same assay, conditions: day 3; 10 μL of 1% in ethanol on right ear; C3H mice

| SMILES | Right ear thickness [×0.01 mm] |
| --- | --- |
| CC(C)C(C(=O)OC(C#N)c1cccc(Oc2ccccc2)c1)c1ccc(Cl)cc1 (centres unmarked) [Fenvalerate, fenvalerate] | 27.0 |

What follows are molecules tested on mice of the C3H strain (assay: Skin irritancy on clipped back skin, visual score, Example 3). Settings: three repeated topical administration, 1% in ethanol.
Format: in vivo
Description: This experiment was conducted to test the skin irritancy of the compositions of this invention on hair-growing areas of test subjects, i.e., female mice (10 weeks old) of the C3H strain (n=5 group). After clipping the hair of the back skin of mice with an electric clipper, 5 μL/cm^2 of each four composition tested in Examples 1 and 2 (at a concentration of 1% in an ethanol solution) were applied. The application was administered once a day, for 3 consecutive days. Skin irritation was evaluated by unaided visual inspection at the end of the third day.

| SMILES | Skin irritation (redness) |
| --- | --- |
| CC(C)C(C(=O)OC(C#N)c1cccc(Oc2ccccc2)c1)c1ccc(Cl)cc1 (centres unmarked) [Fenvalerate, fenvalerate] | failed to cause skin irritation |

Each molecule was assayed on mice (Sencar strain) (assay: Ear thickness after TPA plus pyrethroid application, Example 2). Settings: day 0 (before application); Sencar female mice, n=3.
Format: in vivo
Description: Another ear thickness experiment was performed. Ear thickness of mice (Sencar strain, female, 10 weeks of age, n =3/group) was measured with a thickness gage (Mitsutoyo Corp.). After measuring the thickness of both ears at the beginning of the experiment, 20 μL of 12-O-tetradecanoyl-phorbol 13-acetate (TPA) at a concentration of 10^−4 M in acetone was applied on both ears, followed by the application of 10 μL of ethanol on the left ears and 10 μL of the four compositions tested in Example 1 on the right ears (at a concentration of 1% of pyrethroid compound in ethanol solution). Again, ear thickness was monitored over three consecutive days following administration of the compositions.

| SMILES | Right ear thickness [×0.01 mm] |
| --- | --- |
| CC(C)C(C(=O)OC(C#N)c1cccc(Oc2ccccc2)c1)c1ccc(Cl)cc1 (centres unmarked) [Fenvalerate, fenvalerate] | 24.0 |

Same assay, conditions: day 1; 20 μL TPA 10^−4 M in acetone then 10 μL of 1% in ethanol; Sencar mice

| SMILES | Right ear thickness [×0.01 mm] |
| --- | --- |
| CC(C)C(C(=O)OC(C#N)c1cccc(Oc2ccccc2)c1)c1ccc(Cl)cc1 (centres unmarked) [Fenvalerate, fenvalerate] | 26.3 |

Same assay, conditions: day 2; 20 μL TPA 10^−4 M in acetone then 10 μL of 1% in ethanol; Sencar mice

| SMILES | Right ear thickness [×0.01 mm] |
| --- | --- |
| CC(C)C(C(=O)OC(C#N)c1cccc(Oc2ccccc2)c1)c1ccc(Cl)cc1 (centres unmarked) [Fenvalerate, fenvalerate] | 26.7 |

Same assay, conditions: day 3; 20 μL TPA 10^−4 M in acetone then 10 μL of 1% in ethanol; Sencar mice

| SMILES | Right ear thickness [×0.01 mm] |
| --- | --- |
| CC(C)C(C(=O)OC(C#N)c1cccc(Oc2ccccc2)c1)c1ccc(Cl)cc1 (centres unmarked) [Fenvalerate, fenvalerate] | 26.7 |
